Drawing on the Kinase Knowledgebase extract (Sharma et al. 2016), this text covers IC50 for 14 compounds.

The target of this assay is CDK2 (UniProt P24941). Description: Enzyme Assay.
As to `CC(=O)Nc1ncc(SCc2nc(C)c(C)o2)s1`, the IC50 was < 50 µM.

As for `CC(C)(C)c1cnc(CSc2cnc(Nc3ccncn3)s2)o1`, the IC50 is < 50 µM.

As for `CCc1cnc(CSc2cnc(NC(=O)c3ccccc3)s2)o1`, the IC50 is < 50 µM.

As to `CC(C)(C)c1cnc(CSc2cnc(NC(=NC#N)Nc3c(F)cccc3F)s2)o1`, the IC50 is < 50 µM.

On to `CC(C)(C)c1cnc(CSc2cnc(Nc3ccc(S(=O)(=O)NCCO)cc3)s2)o1`, for which the IC50 is < 50 µM.

On to `CC(C)(CO)CNCc1ccc(Nc2ncc(SCc3ncc(C(C)(C)C)o3)s2)nc1`, for which the half-inhibitory concentration (IC50) was < 50 µM.

Take `CC(=O)Nc1ncc(SC(F)c2ncc(C(C)C)o2)s1` (centres undefined): the IC50 is < 50 µM.

For `CCc1coc(CSc2cnc(NC(C)O)s2)n1` (centres undefined), the IC50 was < 50 µM.

On to `CC(C)(C)c1cnc(CSc2cnc(Nc3ccccn3)s2)o1`, for which the concentration for half-maximal inhibition (IC50) was < 50 µM.

`CC(C)(C)c1cnc(CSc2cnc(Nc3cccc(CO)c3)s2)o1`: the IC50 was < 50 µM.

`CC(=O)Nc1ncc(SCc2ncc(C(C)(C)C)o2)s1`: the IC50 was < 50 µM.

In the case of `CC(C)(C)C(=O)Cc1ncc(SCc2ncc(C(C)(C)C)o2)s1`, the IC50 is < 50 µM.

Turning to `CCc1cnc(CSc2cnc(NC(C)=O)s2)o1`, the IC50 was < 50 µM.

For `CC(C)(C)c1cnc(CSc2cnc(Nc3ccc(S(N)(=O)=O)cc3)s2)o1`, the IC50 was < 50 µM.
